The results in this text go back to publication PMC7867085, “In Vitro and In Vivo Antitumor Activity of Indolo[2,3-b] Quinolines, Natural Product Analogs from Neocryptolepine Alkaloid” (Molecules, 2021).

Data set [1] relates to splenic lymphocytes of normal mice. As to the kind of experiment: Splenic lymphocyte count in normal mice. The data set is classed as in vivo, Swiss female albino mice. As to conditions: 100 mg/kg SC for 5 days. The procedure: The difference in the number of splenic lymphocytes between the study groups, including groups given indoloquinoline derivatives, control group, and groups with a tumor, were evaluated. Normal mice administered indoloquinoline derivatives at a dose of 100 mg/kg for 5 constitutive days subcutaneously reported statistical similarities with the untreated normal mice group regarding the count of splenic lymphocytes (Table 6).
(§1) Under sterile conditions, the spleens were eliminated, and the single cell suspension was made in RPMI 1640 medium. Splenic lymphocytes were purified as described earlier. Viable splenic lymphocytes were counted in a hemocytometer by trypan blue exclusion test and used for further analysis.
(§2) During the study, female Swiss albino mice (normal, treated, and untreated) were anesthetized. Under sterile conditions, after scattering 70% alcohol on the abdominal region, the spleen was removed and then injected with a minor amount of PBS. Spleen was pressed across the fine mesh of the tissue grinder. After centrifuging the produced cell suspension at 1000 rpm for 5 min, the supernatant was discarded, and the cells were washed at room temperature by centrifugation in PBS twice. Trypan blue extrusion method was used to evaluate cell viability, and a phase-contrast microscope was used for cell counting. The experiment was done in tripartite.

For data set [2], the system named is splenic lymphocytes of EAC bearing mice. As to the kind of experiment: Splenic lymphocyte count in EAC bearing mice. The class given is in vivo, Swiss female albino mice. Particulars: 100 mg/kg SC for 5 days. As for the experimental part: This reduction is reconfirming the reported fact that tumor causes massive depletion in immune cell numbers. Table 7 shown the reduced splenic lymphocyte results were a reaffirmation that cancer disabled normal lymphocyte development. The effective dose of indoloquinoline analogs, given throughout this study; 100 mg/kg for 5 constitutive days subcutaneously, reported an increase in the spleen cell number providing evidence that they protect the lymphoid organ of mice with tumor as illustrated in (Table 7).
as §1, §2

The test system of data set [3] is liver. As to the kind of experiment: Histopathological examination of liver sections (H and E). The data set is classed as in vivo. As to conditions: for liver degenerative changes (histopathology): mice treated with compound, Figure 5. From the text: It is well known that the vital organ enables the human body to get rid of toxins, as organic xenobiotics in the liver. Tissue changes in the liver are linked with histological abnormalities. Possible unwanted effects of the Indoloquinolines were checked in the mice group that received the compound; 5 days after subcutaneous injection of the compounds, tumors and livers were fixed in 10% neutral buffered formalin solution and embedded in paraffin. Sections, […], were stained using hematoxylin and eosin (H and E).
Each tumor or liver sample for each mouse was separated and kept in 10% formalin solution and dehydrated in a graded alcohol series. Each specimen was treated with xylene and then inserted in paraffin blocks. The specimen was cut into sections, the thickness of each section is five-micron, hematoxylin, and eosin (H and E) were added for staining. The stained liver specimen was used to assess the degree of degradation and necrosis using a reported scaling system; the scaling system use numbers from 0 to 3 to reflect necrosis severity. Starting from 0, which indicates no necrosis and moves to mild, moderate, and severe necrosis indicated by 1, 2, and 3, respectively. Mild and moderate stages are defined as focal and multifocal necrosis or degradation of hepatocytes, respectively, while severe is characterized by local immense, spread out necrosis or damaged liver cells. Tumor specimen stained with H and E were used to evaluate the severity and percentage of necrosis by the same previously mentioned scaling system.

For data set [4], the system named is EAC-induced solid tumor. The experiment in a line: Antitumor activity: reduction in tumor volume of EAC-induced solid tumor. Particulars: day 12 (last day of treatment), 100 mg/kg SC daily for five consecutive days. The class given is in vivo, Swiss female albino mice. As for the experimental part:
The aim of this study is to characterize indoloquinoline analogs 6a–d curative ability and antineoplastic activity on solid-form of Ehrlich tumors. Tumor volume is a potential biomarker for Ehrlich tumor development. The induction of solid tumor in Swiss female mice performed by inserting 0.2 mL of EAC cells (2 × 10^6 cell/mL) subcutaneously (SC) between thighs of the lower limb. When the tumor volume reached 15–20 mm^3 (Seven days after tumor induction), the mice were randomly divided into 6 groups (n = 10), five groups were injected subcutaneously with thalidomide and indoloquinoline analogs 6a–d (100 mg/kg) daily for five consecutive days, the sixth group (positive control group) were given DMSO/saline (0.3/0.7). The 8th day is considered the zero days of treatment. The tumor volume was daily measured with a vernier caliper for four days stated from day eight.
Thalidomide and indoloquinoline derivatives 6a–d were tested for their antitumor effect; the test was done in vivo on mice-bearing solid tumors. The induction of solid tumor in Swiss female mice performed by inserting 0.2 mL of EAC cells (2 × 10^6 cell/mL) subcutaneously (SC) between thighs of the lower limb. Seven days after tumor induction, animals were divided into 6 groups (n = 10), five groups were injected subcutaneously with 100 mg/kg of tested compounds daily for 5 consecutive days, the sixth group (positive control group) were given 0.3 DMSO/0.7 H2O. On day twelve, after carrying out EAC cells, mice were sacrificed, dissected, and change in tumor mass was evaluated by measuring the developed tumor mass volume using the formula [45, 46]:Tumor volume (mm^3) = 0.52 × length × (width)^2.(1)

[5] abbreviates: 5 days after subcutaneous injection, H and E.

Turning to `Cn1c2nc3ccccc3c-2c(NCCc2c[nH]c3ccccc23)c2ccccc21` [Compound 6b, N-(2-(1H-Indol-3-yl)ethyl)-5-methyl-5H-indolo[2,3-b] Quinolin-11-amine], the “Splenic Lymphocyte Number” value in data set [1] is given as 12.97 ± 0.65 10^6/mL. For the same molecule, in data set [2], the “Splenic Lymphocyte Number” value is given as 14.8 ± 1.22 * 10^6/mL and the “increase in lymphocytic count” value came out at 300%. Further, the “necrosis of liver cells” value in data set [3] (setting [5]) is on record as “did not cause necrosis to liver cells”. For the same molecule, the “liver degenerative changes (histopathology)” value in data set [3] (H and E) is “mild diffuse degenerative changes, mild congestion, and scattered lymphocytes”. Besides, the “reduction percentage in tumor volume” value in data set [4] came out at 87.37%.
Consider “5(5-Methyl-5H-indolo[2,3-b] quinolin-11-ylamino) Pyrimidine-2,4(1H,3H)-dione [Compound 6c]”, for which the “Splenic Lymphocyte Number” value in data set [1] is given as 13.29 ± 1.12 10^6/mL. Besides, in data set [2], the “Splenic Lymphocyte Number” value is recorded as 17.0 ± 0.58 * 10^6/mL and the “increase in lymphocytic count” value is 359.5%. The “necrosis of liver cells” value in data set [3] (mouse, in vivo, sc) is given as “did not cause necrosis to liver cells”. Moreover, the “reduction percentage in tumor volume” value in data set [4] is 93.29%.
On to `Cn1c2nc3ccccc3c-2c(Nc2ccc(Br)cc2F)c2ccccc21` [Compound 6a, N-(4-Bromo-2-fluorophenyl)-5-methyl-5H-indolo[2,3-b] Quinolin-11-amine], for which the “Splenic Lymphocyte Number” value in data set [1] was 13.3 ± 1.08 10^6/mL; in data set [2] it was 20.0 ± 0.73 * 10^6/mL. Moreover, in data set [2], the “increase in lymphocytic count” value came to 440.5%. In addition, the “necrosis of liver cells” value in data set [3] (setting [5]) is listed as “did not cause necrosis to liver cells”. In addition, in data set [3] (H and E), the “liver degenerative changes (histopathology)” value is reported as “mild degenerative changes”. The “reduction percentage in tumor volume” value in data set [4] stood at 90.58%.
For “5-Methyl-N-(4-methylpiperazin-1-yl)-5H-indolo[2,3-b] Quinolin-11-amine [Compound 6d]”, in data set [1], the “Splenic Lymphocyte Number” value is listed as 12.8 ± 0.04 10^6/mL. In data set [2], the “Splenic Lymphocyte Number” value is recorded as 17.0 ± 0.61 * 10^6/mL and the “increase in lymphocytic count” value was 359.5%. The “necrosis of liver cells” value in data set [3] (mouse, in vivo, sc) was “did not cause necrosis to liver cells”. Moreover, the “reduction percentage in tumor volume” value in data set [4] came to 94.90%.
